Measurements as given in patent US9232798B2, “Pesticidal composition and its use” (SUMITOMO CHEMICAL COMPANY, LIMITED, priority 2010, dated 2016).

System: Rhizoctonia solani
Assay: Soybean seed treatment test against Rhizoctonia solani in contaminated soil (Test Example)
Format: in vivo, Rhizoctonia solani on soybean (variety: Natto shoryu)
Conditions: carboxamide compound alone 0.2 g/100 kg of seeds (no fipronil), soybean grown 20 days in soil contaminated by Rhizoctonia solani, from disease severity versus non-treated plot
Method: A cyclohexanone solution (100 microL) containing prescribed amount (weight) of a test compound was applied on seeds of soybean (variety: Natto shoryu) (10 g) by using a rotary apparatus for seed treatment (Seed dresser, manufactured by Hans-Ulrich Hege GmbH).
One day after the treatment, plastic pot was filled with soil contaminated by Rhizoctonia solani, and the seeds treated with the test compounds were seeded in the soil and cultivated in a glass-greenhouse for 20 days (hereinafter referred to as “treated plot”).
Thereafter, the presence of disease caused by Rhizoctonia solani in the young plants which germinated from each seed was observed and disease severity was calculated according to the following calculation formula (1).
On the other hand, seeds of soybean which were not treated as above were cultivated in the same way as above (hereinafter referred to as “non-treated plot”) and the disease severity in “non-treated plot” was calculated in the same way as above “treated plot”. On the basis of the above disease severity in “treated plot” and the “non-treated plot”, efficacy in “treated plot” was evaluated according to the following calculation formula (2). […]

SMILES: CC1CC(C)(C)c2cccc(NC(=O)c3cn(C)nc3C(F)F)c21 (stereo not shown) [carboxamide compound (1)]
- efficacy (%): 42.1%
